According to PubChem BioAssay (NCI):
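All cell lines were grown in 96-well plates and treated with compound for 48 hours. GI50 is the concentration that inhibits growth by half. TGI: total growth inhibition.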

Key:
Experiment in all cases: NCI-60 cell line screen, 48 h
[1] = tested on: K-562 leukemia
[2] = tested on: MALME-3M melanoma
[3] = tested on: UACC-257 melanoma
[4] = tested on: SK-MEL-2 melanoma
[5] = tested on: ACHN renal
[6] = tested on: OVCAR-8 ovarian
[7] = tested on: CAKI-1 renal
[8] = tested on: MOLT-4 leukemia
[9] = tested on: HCC-2998 colon
[10] = tested on: SN12C renal
[11] = tested on: HT29 colon
[12] = tested on: COLO 205 colon
[13] = tested on: A498 renal
[14] = tested on: NCI-H460 lung
[15] = tested on: NCI-H522 lung
[16] = tested on: SK-MEL-5 melanoma
[17] = tested on: HOP-92 NSCLC
[18] = tested on: A549 NSCLC
[19] = tested on: OVCAR-4 ovarian
[20] = tested on: HL-60(TB) leukemia
[21] = tested on: LXFL 529 NSCLC
[22] = tested on: HOP-62 NSCLC
[23] = tested on: SF-268 CNS
[24] = tested on: HCT-116 colon
[25] = tested on: NCI-H226 lung
[26] = tested on: LOX IMVI melanoma
[27] = tested on: IGROV1 ovarian
[28] = tested on: SF-539 CNS
[29] = tested on: KM20L2 colon
[30] = tested on: RXF 393 renal
[31] = tested on: SK-OV-3 ovarian
[32] = tested on: M14 melanoma
[33] = tested on: CCRF-CEM leukemia
[34] = tested on: 786-0 renal
[35] = tested on: SW-620 colon
[36] = tested on: EKVX NSCLC
[37] = tested on: M19-MEL melanoma
[38] = tested on: SNB-19 CNS
[39] = tested on: TK-10 renal
[40] = tested on: RPMI-8226 leukemia
[41] = tested on: OVCAR-5 ovarian
[42] = tested on: OVCAR-3 ovarian
[43] = tested on: KM12 colon
[44] = tested on: HCT-15 colon
[45] = tested on: UO-31 renal
[46] = tested on: SF-295 CNS
[47] = tested on: NCI-H23 lung
[48] = tested on: SK-MEL-28 melanoma
[49] = tested on: U251 CNS
[50] = tested on: DLD-1 colon
[51] = tested on: UACC-62 melanoma

CC(=O)[CH-]C(=O)c1ccccc1.CC(=O)[CH-]C(=O)c1ccccc1.CCN(CC)CC[O-].CCN(CC)CC[O-].Cl.[Hf+4]
GI50 [1]: > 100 µM
TGI [1]: > 100 µM
GI50 [2]: > 100 µM
TGI [2]: > 100 µM
GI50 [3]: > 100 µM
TGI [3]: > 100 µM
GI50 [4]: > 100 µM
TGI [4]: > 100 µM
GI50 [5]: 44.6 µM
TGI [5]: > 100 µM
GI50 [6]: > 100 µM
TGI [6]: > 100 µM
GI50 [7]: > 100 µM
TGI [7]: > 100 µM
GI50 [8]: 65 µM
TGI [8]: > 100 µM
GI50 [9]: > 100 µM
TGI [9]: > 100 µM
GI50 [10]: > 100 µM
TGI [10]: > 100 µM
GI50 [11]: > 100 µM
TGI [11]: > 100 µM
GI50 [12]: > 100 µM
TGI [12]: > 100 µM
GI50 [13]: 32.2 µM
TGI [13]: > 100 µM
GI50 [14]: 36.4 µM
TGI [14]: > 100 µM
GI50 [15]: 52.5 µM
TGI [15]: > 100 µM
GI50 [16]: > 100 µM
TGI [16]: > 100 µM
GI50 [17]: 58.9 µM
TGI [17]: > 100 µM
GI50 [18]: > 100 µM
TGI [18]: > 100 µM
GI50 [19]: > 100 µM
TGI [19]: > 100 µM
GI50 [20]: > 100 µM
TGI [20]: > 100 µM
GI50 [21]: > 100 µM
TGI [21]: > 100 µM
GI50 [22]: > 100 µM
TGI [22]: > 100 µM
GI50 [23]: > 100 µM
TGI [23]: > 100 µM
GI50 [24]: > 100 µM
TGI [24]: > 100 µM
GI50 [25]: 66.1 µM
TGI [25]: > 100 µM
GI50 [26]: 72.9 µM
TGI [26]: > 100 µM
GI50 [27]: > 100 µM
TGI [27]: > 100 µM
GI50 [28]: > 100 µM
TGI [28]: > 100 µM
GI50 [29]: > 100 µM
TGI [29]: > 100 µM
GI50 [30]: 29.7 µM
TGI [30]: > 100 µM
GI50 [31]: > 100 µM
TGI [31]: > 100 µM
GI50 [32]: 92 µM
TGI [32]: > 100 µM
GI50 [33]: 81.6 µM
TGI [33]: > 100 µM
GI50 [34]: 88.8 µM
TGI [34]: > 100 µM
GI50 [35]: > 100 µM
TGI [35]: > 100 µM
GI50 [36]: 93.8 µM
TGI [36]: > 100 µM
GI50 [37]: > 100 µM
TGI [37]: > 100 µM
GI50 [38]: > 100 µM
TGI [38]: > 100 µM
GI50 [39]: > 100 µM
TGI [39]: > 100 µM
GI50 [40]: > 100 µM
TGI [40]: > 100 µM
GI50 [41]: > 100 µM
TGI [41]: > 100 µM
GI50 [42]: > 100 µM
TGI [42]: > 100 µM
GI50 [43]: > 100 µM
TGI [43]: > 100 µM
GI50 [44]: > 100 µM
TGI [44]: > 100 µM
GI50 [45]: > 100 µM
TGI [45]: > 100 µM
GI50 [46]: 73.2 µM
TGI [46]: > 100 µM
GI50 [47]: 19.7 µM
TGI [47]: > 100 µM
GI50 [48]: > 100 µM
TGI [48]: > 100 µM
GI50 [49]: > 100 µM
TGI [49]: > 100 µM
GI50 [50]: > 100 µM
TGI [50]: > 100 µM
GI50 [51]: > 100 µM
TGI [51]: > 100 µM
